{"source": "patent US11052063B2", "about": "“Methods of reducing RLP-C” (Amarin Pharmaceuticals Ireland Limited, priority 2014, dated 2021)", "system": "Serum RLP-C", "assay": "12-week placebo-controlled study (ANCHOR), serum RLP-C by immunoseparation assay, statin-treated patients with fasting TG ≥200 and <500 mg/dl", "format": "in vivo, human", "conditions": "for Median Change from Baseline in RLP-C vs. Placebo: Hodges-Lehmann estimate; for Median Change from Baseline in RLP-C vs. Placebo / RLP-C Concentration End of Treatment: week 12; for RLP-C Concentration Change: median change from baseline to week 12; for RLP-C Concentration Baseline / RLP-C Concentration End of Treatment: median; for RLP-C Concentration Baseline: before treatment", "description": "A multi-center, placebo-controlled, randomized, double-blind, 12-week study was performed to evaluate the efficacy and safety of >96% E-EPA in patients with fasting triglyceride levels≥200 mg/dl and <500 mg/dl despite statin therapy (the mean of two qualifying entry values needed to be ≥185 mg/dl and at least one of the values needed to be ≥200 mg/dl). The primary objective of the study was to determine the efficacy of >96%, by weight of all fatty acids present, ethyl-EPA (“AMR101”) 2 g daily and 4 g daily, compared to placebo, in lowering fasting TG levels in patients with high risk for cardiovascular disease and with fasting TG levels≥200 mg/dl and <500 mg/dl, despite treatment to LDL-C goal on statin therapy. The population for this study was men and women>18 years of age with a body mass index≤45 kg/m^2 with fasting TG levels greater than or equal to 200 mg/dl and less than 500 mg/dl and on a stable does of statin therapy (with or without ezetimibe). The statin was atorvostatin, rosuvastatin or simvastatin. The dose of statin must have been stable for ≥4 weeks prior to the LDL-C/TG baseline qualifying measurement for randomization. The statin dose was optimized such that the patients are at their LDL-C goal at the LDL-C/TG baseline qualifying measurements. The same statin at the same dose was continued until the study ended. Approximately 702 patients were randomized at approximately 80 centers in the U.S. The study was a 18- to 20-week, Phase 3, multi-center study consisting of 2 study periods: (1) A 6- to 8-week screening period that included a diet and lifestyle stabilization, a non-statin lipid-altering treatment washout, and an LDL-C and TG qualifying period and (2) A 12-week, double-blind, randomized, placebo-controlled treatment period. After confirmation of qualifying fasting LDL-C and TG values, eligible patients entered a 12-week, randomized, double-blind treatment period. At Visit 4 (Week 0), patients were randomly assigned to 1 of the following treatment groups: • >96% E-EPA 2 g daily, • >96% E-EPA 4 g daily, or • Placebo. >96% E-EPA was provided in 1 g liquid-filled, oblong, gelatin capsules. The matching placebo capsule was filled with light liquid paraffin and contained 0 g of >96% E-EPA. >96% E-EPA capsules were to be taken with food (i.e. with or at the end of a meal). During the double-blind treatment period, patients were to take 2 capsules (>96% E-EPA or matching placebo) in the morning and 2 capsules in the evening for a total of 4 capsules per day. • Patients in the >96% E-EPA 2 g/day treatment group received 1 >96% E-EPA 1 g capsule and 1 matching placebo capsule in the morning and in the evening. • Patients in the >96% E-EPA 4 g/day treatment group received 2 >96% E-EPA 1 g capsules in the morning and evening. The primary efficacy variable for the double-blind treatment period was percent change in TG from baseline to Week 12 endpoint. […]", "key": {"[1]": {"conditions": "2 g/day, Baseline TG <259 mg/dl"}, "[2]": {"conditions": "2 g/day, Baseline TG ≥259 mg/dl"}, "[3]": {"conditions": "2 g/day, Lower Statin Intensity"}, "[4]": {"conditions": "2 g/day, Medium and Higher Statin Intensity"}, "[5]": {"conditions": "4 g/day, Baseline TG <259 mg/dl"}, "[6]": {"conditions": "4 g/day, Baseline TG ≥259 mg/dl"}, "[7]": {"conditions": "4 g/day, Lower Statin Intensity"}, "[8]": {"conditions": "4 g/day, Medium and Higher Statin Intensity"}}, "data": [{"smiles": "CC/C=C\\C/C=C\\C/C=C\\C/C=C\\C/C=C\\CCCC(=O)OCC", "note": "[AMR101, ethyl-EPA]", "values": [{"measurement": "RLP-C compared to placebo", "setting": "2 g/day treatment group, 12 weeks", "value": "reduced RLP-C compared to placebo"}, {"measurement": "Median Change from Baseline in RLP-C vs. Placebo", "setting": "[1]", "value": "−16.4", "unit": "%"}, {"measurement": "RLP-C Concentration Change", "setting": "[1]", "value": "−8.1", "unit": "%"}, {"measurement": "RLP-C Concentration Baseline", "setting": "[1]", "value": 11.5, "unit": "mg/dL"}, {"measurement": "RLP-C Concentration End of Treatment", "setting": "[1]", "value": 11.0, "unit": "mg/dL"}, {"measurement": "Median Change from Baseline in RLP-C vs. Placebo", "setting": "[2]", "value": "−18.0", "unit": "%"}, {"measurement": "RLP-C Concentration Change", "setting": "[2]", "value": "−17.4", "unit": "%"}, {"measurement": "RLP-C Concentration Baseline", "setting": "[2]", "value": 18.0, "unit": "mg/dL"}, {"measurement": "RLP-C Concentration End of Treatment", "setting": "[2]", "value": 13.5, "unit": "mg/dL"}, {"measurement": "Median Change from Baseline in RLP-C vs. Placebo", "setting": "2 g/day, ITT", "value": "−16.7", "unit": "%"}, {"measurement": "RLP-C Concentration Change", "setting": "2 g/day, ITT", "value": "−11.1", "unit": "%"}, {"measurement": "RLP-C Concentration Baseline", "setting": "2 g/day, ITT", "value": 15.0, "unit": "mg/dL"}, {"measurement": "RLP-C Concentration End of Treatment", "setting": "2 g/day, ITT", "value": 11.0, "unit": "mg/dL"}, {"measurement": "Median Change from Baseline in RLP-C vs. Placebo", "setting": "[3]", "value": 2.7, "unit": "%"}, {"measurement": "RLP-C Concentration Change", "setting": "[3]", "value": "−11.1", "unit": "%"}, {"measurement": "RLP-C Concentration Baseline", "setting": "[3]", "value": 15.0, "unit": "mg/dL"}, {"measurement": "RLP-C Concentration End of Treatment", "setting": "[3]", "value": 11.0, "unit": "mg/dL"}, {"measurement": "Median Change from Baseline in RLP-C vs. Placebo", "setting": "[4]", "value": "−17.3", "unit": "%"}, {"measurement": "RLP-C Concentration Change", "setting": "[4]", "value": "−11.1", "unit": "%"}, {"measurement": "RLP-C Concentration Baseline", "setting": "[4]", "value": 15.0, "unit": "mg/dL"}, {"measurement": "RLP-C Concentration End of Treatment", "setting": "[4]", "value": 11.0, "unit": "mg/dL"}, {"measurement": "median placebo-adjusted reduction in RLP-C", "setting": "4 g/day treatment group, 12 weeks, p=0.0001, stated as reduction", "value": 25.8, "unit": "%"}, {"measurement": "reductions in RLP-C compared to baseline", "setting": "4 g/day treatment group, 12 weeks, stated as reduction", "value": 24.0, "unit": "%"}, {"measurement": "Median Change from Baseline in RLP-C vs. Placebo", "setting": "[5]", "value": "−22.2", "unit": "%"}, {"measurement": "RLP-C Concentration Change", "setting": "[5]", "value": "−16.0", "unit": "%"}, {"measurement": "RLP-C Concentration Baseline", "setting": "[5]", "value": 11.0, "unit": "mg/dL"}, {"measurement": "RLP-C Concentration End of Treatment", "setting": "[5]", "value": 9.0, "unit": "mg/dL"}, {"measurement": "Median Change from Baseline in RLP-C vs. Placebo", "setting": "[6]", "value": "−30.6", "unit": "%"}, {"measurement": "RLP-C Concentration Change", "setting": "[6]", "value": "−31.3", "unit": "%"}, {"measurement": "RLP-C Concentration Baseline", "setting": "[6]", "value": 17.0, "unit": "mg/dL"}, {"measurement": "RLP-C Concentration End of Treatment", "setting": "[6]", "value": 11.0, "unit": "mg/dL"}, {"measurement": "Median Change from Baseline in RLP-C vs. Placebo", "setting": "4 g/day, ITT", "value": "−25.8", "unit": "%"}, {"measurement": "RLP-C Concentration Change", "setting": "4 g/day, ITT", "value": "−24.0", "unit": "%"}, {"measurement": "RLP-C Concentration Baseline", "setting": "4 g/day, ITT", "value": 13.5, "unit": "mg/dL"}, {"measurement": "RLP-C Concentration End of Treatment", "setting": "4 g/day, ITT", "value": 10.0, "unit": "mg/dL"}, {"measurement": "Median Change from Baseline in RLP-C vs. Placebo", "setting": "[7]", "value": "−11.9", "unit": "%"}, {"measurement": "RLP-C Concentration Change", "setting": "[7]", "value": "−29.2", "unit": "%"}, {"measurement": "RLP-C Concentration Baseline", "setting": "[7]", "value": 16.0, "unit": "mg/dL"}, {"measurement": "RLP-C Concentration End of Treatment", "setting": "[7]", "value": 15.0, "unit": "mg/dL"}, {"measurement": "Median Change from Baseline in RLP-C vs. Placebo", "setting": "[8]", "value": "−26.7", "unit": "%"}, {"measurement": "RLP-C Concentration Change", "setting": "[8]", "value": "−23.1", "unit": "%"}, {"measurement": "RLP-C Concentration Baseline", "setting": "[8]", "value": 13.0, "unit": "mg/dL"}, {"measurement": "RLP-C Concentration End of Treatment", "setting": "[8]", "value": 10.0, "unit": "mg/dL"}, {"measurement": "RLP-C reductions by statin intensity", "setting": "subjects on moderate- to high-intensity statin therapy compared to lower-intensity statin therapy", "value": "greater RLP-C reductions"}]}]}
